Test [1] deals with TP21 gene. Put plainly: qRT-PCR of TP21 in SKOV3 cells. As to conditions: SKOV3 parental (p53 null) and R273H m-p53 cells; SHetA2 10 µM, PRIMA-1 20 µM, 16 h. The class given is cell-based, human.
For test [2], the system named is SiHa cervical cancer cell line xenograft. Kind of test: SiHa xenograft tumor growth. Format: in vivo, mice. As to conditions: gavage 60 mg/kg SHetA2, 100 mg/kg palbociclib or the combination every other day. From the text: FIG. 49. […] Controls were gavaged with the same Kolliphor HS15 used to suspend the drugs. Using a generalized estimating equations (GEE) model to analyze tumor growth treated as a continuous variable, there was a significant additive effect of SHetA2 (p<0.001) and palbociclib (p<0.001) on day 65 of treatment. This additive effect between SHetA2 (p=0.001) and palbociclib (p=0.051) was trending significant at day 63 of treatment. Additionally, SHetA2 starts to show significant tumor suppressing activity as early as day 63 of treatment (p=0.045).

Test [3] has as its system FTSECs. Put plainly: MTT cytotoxicity assay and Chou-Talalay drug interaction. Format: cell-based, human. Particulars: hFTSECs. The method, then:
(§1) Cells plated at 2000 cells/well in 96 well microtiter plates were incubated for 36-48 h and treated with a range of doses and combinations of SHetA2 and PRIMA-1 or PRIMA-1^MET, or the same volume of DMSO solvent for 72 h of incubation. The percentage of growth for single drug treatments or fold effect (1 - ratio of treated/untreated growth) was measured using the CellTiter 96 AQueous Non-Radioactive Cell Proliferation Assay (Promega, Madison, WI, USA) and the BioTeK SYNERGY H1 (BioTeK, Winooski, VT, USA). Each experiment was performed in triplicate and repeated 2-3 times.
(§2) The potencies (IC50′s) of SHetA2 or PRIMA-1 were determined using GraphPad Prism 6 software analysis of average MTT Optical Density vs drug dose. […] Single drug treatments at doses surrounding the IC50 values were evaluated parallel. All treatments were performed in triplicate and averages used to draw isobolograms and calculate combination indices (CI) and dose-reduction indices (DRIs) using CompuSyn Software according to the Chou and Talalay method (op cit). All experiments were repeated at least twice for each cell line to confirm results.
In general terms: Formazan colour is commonly taken as a measure of viable cells.

Test [4] relates to A2780 (WT p53). Described as above. Format: cell-based, human. The protocol:
as §1, §2

In test [5] the test system is p53. Kind of test: p53 cellular localization in hFTSECs. Format: cell-based, human. As to conditions: 24 h. The protocol: Cytoplasmic and nuclear protein fractions were isolated from cultures using NE-PER Nuclear and Cytoplasmic Extraction Reagents (ThermoFisher, Waltham, MA, USA) and the Mitochondria/Cytosol Fractionation Kit (ThermoFisher, Waltham, MA, USA) and protein concentrations determined with BCA reagent (ThermoFisher, Waltham, MA, USA).
Proteins were extracted from cell cultures using M-PER mammalian protein extraction reagent (ThermoFisher, Waltham, MA, USA) and volumes corresponding to 30 µg determined with BCA reagent (ThermoFisher, Waltham, MA, USA) were electrophoresed into a SDS-PAGE gel and transferred to PVDF membranes. Membranes were blocked (5% dry skim milk powder in TBST buffer) for at least 1 h or overnight, washed thrice with TBST and then incubated with primary antibody: p53 DO-1, β-actin, histone H3, GAPDH (Santa Cruz Biotechnology, Dallas, TX, USA) and mortalin, Tom20, V5 tag antibodies, p21, PARP, SLC7A11, caspase 3 (Cell Signaling Technology, Danvers, MA, USA) for at least 1 h or overnight. After three washes, membranes were incubated with anti-mouse HRP conjugated (Santa Cruz Biotechnology, Dallas, TX, USA) or anti-Rabbit HRP conjugated (Cell Signaling Technology, Danvers, MA, USA) for 40 min. Membranes then were washed and developed with ECL reagents (BioRad, Hercules, CA, USA). Bands were imaged and quantified (ChemiDoc imaging system with Image Lab Software/BioRad). […]

Test [6] relates to p21. Kind of test: Western blots of p21 in ovarian cancer cell lines. The class given is cell-based, human. Particulars: A2780, SKOV3, SKOV3 R273H, SKOV3 R248W. The protocol:
Proteins were extracted from cell cultures using M-PER mammalian protein extraction reagent (ThermoFisher, Waltham, MA, USA) and volumes corresponding to 30 µg determined with BCA reagent (ThermoFisher, Waltham, MA, USA) were electrophoresed into a SDS-PAGE gel and transferred to PVDF membranes. Membranes were blocked (5% dry skim milk powder in TBST buffer) for at least 1 h or overnight, washed thrice with TBST and then incubated with primary antibody: p53 DO-1, β-actin, histone H3, GAPDH (Santa Cruz Biotechnology, Dallas, TX, USA) and mortalin, Tom20, V5 tag antibodies, p21, PARP, SLC7A11, caspase 3 (Cell Signaling Technology, Danvers, MA, USA) for at least 1 h or overnight. After three washes, membranes were incubated with anti-mouse HRP conjugated (Santa Cruz Biotechnology, Dallas, TX, USA) or anti-Rabbit HRP conjugated (Cell Signaling Technology, Danvers, MA, USA) for 40 min. Membranes then were washed and developed with ECL reagents (BioRad, Hercules, CA, USA). Bands were imaged and quantified (ChemiDoc imaging system with Image Lab Software/BioRad).
For orientation: In western blotting, separated proteins are transferred to a membrane and probed.

As usually defined, the IC50 is the concentration that gives 50% inhibition. With `CC1(C)CC(C)(C)c2cc(NC(=S)Nc3ccc([N+](=O)[O-])cc3)ccc2S1` [SHetA2], the “TP21 transcription (qRT-PCR)” value in test [1] is given as “induced TP21 transcription”. In test [2], the “SiHa xenograft tumor growth” value is reported as “significantly reduce SiHa cervical cancer cell line xenograft tumor growth”. The “SHetA2 sensitivity compared with ovarian cancer cell lines” value in test [3] is “least sensitive”. The IC50 is 4.8 µM in test [4] (A2780 cells with shRNA knockdown of p53, MTT) and 2.8 µM in test [4] (A2780 cells without p53 knockdown (empty vector), MTT). The p53 cellular localization result in test [5] is “minimal effects on p53 cellular localization”. Moreover, in test [6], the “p21 protein (Western blot)” value is given as “increased p21 protein in all cell lines evaluated regardless of p53 status”.

Values taken from US20230346743A1, “COMBINATION CANCER THERAPIES” (The Board of Regents of the University of Oklahoma, priority 2018, published 2023).
